Test results from ChEMBL document CHEMBL1201862, “PubChem BioAssay data set” (2004).
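Growth conditions: 96-well plates. Treatment: test compound, 48 hours, 5 concentrations. Analysis: linear interpolation between bracketing concentrations; unreached endpoints set to highest concentration. At the GI50, growth is halved.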 The source made the active and inactive calls. Cut-off read from the data, not from the text of the source: active = GI50 up to about 1.1 µM and inactive = higher.

Columns and labels:
Test in all cases: inhibition of tumour cell growth, NCI panel, 48 h
M14 = tested on: M14
UACC-257 = tested on: UACC-257
OVCAR-4 = tested on: OVCAR-4
MDA-MB-231 = tested on: MDA-MB-231
SR = tested on: SR
HT-29 = tested on: HT-29
SNB-75 = tested on: SNB-75
SK-OV-3 = tested on: SK-OV-3
A549 = tested on: A549
Hs-578T = tested on: Hs-578T
OVCAR-8 = tested on: OVCAR-8
SF-268 = tested on: SF-268
SK-MEL-2 = tested on: SK-MEL-2
COLO 205 = tested on: COLO 205
CCRF-CEM = tested on: CCRF-CEM
SNB-19 = tested on: SNB-19
TK-10 = tested on: TK-10
NCI-H522 = tested on: NCI-H522
HCT-15 = tested on: HCT-15
HCT-116 = tested on: HCT-116
IGROV-1 = tested on: IGROV-1
Malme-3M = tested on: Malme-3M
HOP-62 = tested on: HOP-62
SF-295 = tested on: SF-295
SK-MEL-5 = tested on: SK-MEL-5
EKVX = tested on: EKVX
LOX IMVI = tested on: LOX IMVI
K562 = tested on: K562
UO-31 = tested on: UO-31
NCI-H226 = tested on: NCI-H226
MOLT-4 = tested on: MOLT-4
MCF7 = tested on: MCF7
CAKI-1 = tested on: CAKI-1
DU-145 = tested on: DU-145
786-0 = tested on: 786-0
OVCAR-3 = tested on: OVCAR-3
BT-549 = tested on: BT-549
HL-60 = tested on: HL-60
U-251 = tested on: U-251
NCI-H460 = tested on: NCI-H460
NCI-H23 = tested on: NCI-H23
RPMI-8226 = tested on: RPMI-8226
KM12 = tested on: KM12
HOP-92 = tested on: HOP-92
PC-3 = tested on: PC-3
OVCAR-5 = tested on: OVCAR-5
NCI/ADR-RES = tested on: NCI/ADR-RES
MDA-MB-435 = tested on: MDA-MB-435
UACC-62 = tested on: UACC-62
T47D = tested on: T47D
A498 = tested on: A498
RXF 393 = tested on: RXF 393
SF-539 = tested on: SF-539
SW-620 = tested on: SW-620
SN12C = tested on: SN12C
ACHN = tested on: ACHN
HCC 2998 = tested on: HCC 2998
SK-MEL-28 = tested on: SK-MEL-28

COc1cc(/C=C2\C[C@H]3[C@@H]4CC=C5C[C@@H](N6CCCC6)CC[C@]5(C)[C@H]4CC[C@]3(C)[C@H]2O)cc(OC)c1OC
GI50 (M14): 2.2 µM (inactive)
GI50 (UACC-257): 15 µM (inactive)
GI50 (OVCAR-4): 13.8 µM (inactive)
GI50 (MDA-MB-231): 17.5 µM (inactive)
GI50 (SR): 2.63 µM (inactive)
GI50 (HT-29): 3.38 µM (inactive)
GI50 (SNB-75): 12.1 µM (inactive)
GI50 (SK-OV-3): 18.6 µM (inactive)
GI50 (A549): 10.6 µM (inactive)
GI50 (Hs-578T): 6.11 µM (inactive)
GI50 (OVCAR-8): 11 µM (inactive)
GI50 (SF-268): 3.28 µM (inactive)
GI50 (SK-MEL-2): 19.5 µM (inactive)
GI50 (COLO 205): 14.8 µM (inactive)
GI50 (CCRF-CEM): 3.72 µM (inactive)
GI50 (SNB-19): 18.8 µM (inactive)
GI50 (TK-10): 20.3 µM (inactive)
GI50 (NCI-H522): 13.4 µM (inactive)
GI50 (HCT-15): 11.7 µM
GI50 (HCT-116): 13.2 µM (inactive)
GI50 (IGROV-1): 15.9 µM (inactive)
GI50 (Malme-3M): 11.7 µM (inactive)
GI50 (HOP-62): 16.1 µM (inactive)
GI50 (SF-295): 13 µM (inactive)
GI50 (SK-MEL-5): 14.5 µM (inactive)
GI50 (EKVX): 16.1 µM (inactive)
GI50 (LOX IMVI): 8.57 µM (inactive)
GI50 (K562): 13 µM (inactive)
GI50 (UO-31): 2.8 µM (inactive)
GI50 (NCI-H226): 21.2 µM (inactive)
GI50 (MOLT-4): 8.11 µM (inactive)
GI50 (MCF7): 8.71 µM (inactive)
GI50 (CAKI-1): 15.5 µM (inactive)
GI50 (DU-145): 16.8 µM (inactive)
GI50 (786-0): 4.11 µM (inactive)
GI50 (OVCAR-3): 15.5 µM (inactive)
GI50 (BT-549): 16.1 µM (inactive)
GI50 (HL-60): 9.12 µM (inactive)
GI50 (U-251): 15.4 µM (inactive)
GI50 (NCI-H460): 3.78 µM (inactive)
GI50 (NCI-H23): 14.9 µM (inactive)
GI50 (RPMI-8226): 6.4 µM (inactive)
GI50 (KM12): 7.57 µM (inactive)
GI50 (HOP-92): 12.5 µM (inactive)
GI50 (PC-3): 13.4 µM (inactive)
GI50 (OVCAR-5): 8.79 µM (inactive)
GI50 (NCI/ADR-RES): 15.8 µM (inactive)
GI50 (MDA-MB-435): 4.45 µM (inactive)
GI50 (UACC-62): 18.6 µM (inactive)
GI50 (T47D): 20 µM (inactive)
GI50 (A498): 16.6 µM (inactive)
GI50 (RXF 393): 7.57 µM (inactive)
GI50 (SF-539): 16.3 µM (inactive)
GI50 (SW-620): 8.04 µM (inactive)
GI50 (SN12C): 13.2 µM (inactive)
GI50 (ACHN): 15.8 µM (inactive)
GI50 (HCC 2998): 7.83 µM (inactive)
GI50 (SK-MEL-28): 17.4 µM (inactive)
